Results reported in patent US12145927B2 (BRISTOL-MYERS SQUIBB COMPANY, priority 2018, dated 2024).
“And” between values parts separate entries of the source, which are not always exact repeats. Equal entries are not always repeated.

biological target: T1, human IDO1 (Homo sapiens, UniProt P14902); test: IDO inhibition assay in human IDO1/HEK293 cells (IDO1 HEK Human); type: cell-based; conditions: HEK293 cells stably expressing human IDO1; 20 hours incubation; absorbance at 490 nm after Ehrlich reagent
T1 construct: expressed in transfected cells
T1 sequence (P14902 whole entry): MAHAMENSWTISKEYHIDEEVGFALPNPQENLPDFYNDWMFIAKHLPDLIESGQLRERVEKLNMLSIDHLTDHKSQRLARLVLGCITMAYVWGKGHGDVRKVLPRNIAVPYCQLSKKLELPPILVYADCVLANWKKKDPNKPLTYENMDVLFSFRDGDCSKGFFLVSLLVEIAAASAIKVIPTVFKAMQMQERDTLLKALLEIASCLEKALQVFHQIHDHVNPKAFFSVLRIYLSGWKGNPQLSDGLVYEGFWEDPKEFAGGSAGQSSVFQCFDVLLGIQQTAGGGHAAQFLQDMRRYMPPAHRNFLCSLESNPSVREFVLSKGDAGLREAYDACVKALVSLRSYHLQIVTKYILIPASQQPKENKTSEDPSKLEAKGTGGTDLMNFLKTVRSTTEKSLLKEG
Method in brief: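 HEK293 clones stably expressing human IDO1 (10,000 cells/well, phenol red-free RPMI, 10% FBS) were treated with compound for 20 hours at 37° C. After 0.2% TCA and 30 min at 50° C., kynurenine was read with Ehrlich reagent at 490 nm. IC50 was normalised to DMSO (0%) and 500 nM reference standard (100%).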

Which IC50 does the source give for Cc1ccc(Nc2cc(-c3ccccc3-c3nnn[nH]3)cc3c2OCCCC3c2ccccc2)nc1 (single isomer, unassigned) [62 (En. 1), N-(7-(2-(1H-tetrazol-5-yl)phenyl)-5-phenyl-2,3,4,5-tetrahydrobenzo[b]oxepin-9-yl)-5-methylpyridin-2-amine] here?
Its IC50 is 1810 nM.

Which IC50 does the source give for Cc1ccc(Nc2cc(-c3ccccc3-c3nnn[nH]3)cc3c2OCCCC3c2ccccc2)nc1 (single isomer, unassigned) [62 (En. 2), N-(7-(2-(1H-tetrazol-5-yl)phenyl)-5-phenyl-2,3,4,5-tetrahydrobenzo[b]oxepin-9-yl)-5-methylpyridin-2-amine] here?
Its IC50 is 44.9 nM.

For Fc1cnc(Nc2cc(-c3ccccc3-c3nnn[nH]3)cc3c2OCCCC3c2ccccc2)nc1 (single isomer, unassigned) [63 (En-2), N-(7-(2-(1H-tetrazol-5-yl)phenyl)-5-phenyl-2,3,4,5-tetrahydrobenzo[b]oxepin-9-yl)-5-fluoropyrimidin-2-amine], which IC50 is on record?
The IC50 was 11.6 nM.

With Fc1cnc(Nc2cc(-c3ccccc3-c3nnn[nH]3)cc3c2OCCCC3c2ccccc2)nc1 (single isomer, unassigned) [63 (En. 1), N-(7-(2-(1H-tetrazol-5-yl)phenyl)-5-phenyl-2,3,4,5-tetrahydrobenzo[b]oxepin-9-yl)-5-fluoropyrimidin-2-amine] as the compound, how does the IC50 read?
Its IC50 is 539 nM.

c1ccc(C2CCCOc3c(Nc4nc5ccccc5s4)cc(-c4ccccc4-c4nnn[nH]4)cc32)cc1 (single isomer, unassigned) [64 (En. 1), N-(7-(2-(1H-tetrazol-5-yl)phenyl)-5-phenyl-2,3,4,5-tetrahydrobenzo[b]oxepin-9-yl) benzo[d]thiazol-2-amine] was tested. Which IC50 did it give?
The IC50 was 422 nM.

How did the IC50 turn out when c1ccc(C2CCCOc3c(Nc4nc5ccccc5s4)cc(-c4ccccc4-c4nnn[nH]4)cc32)cc1 (single isomer, unassigned) [64 (En. 2), N-(7-(2-(1H-tetrazol-5-yl)phenyl)-5-phenyl-2,3,4,5-tetrahydrobenzo[b]oxepin-9-yl) benzo[d]thiazol-2-amine] was run?
The IC50 was 17 nM.

With c1ccc(C2CCCOc3c(Nc4ccn5nccc5n4)cc(-c4ccccc4-c4nnn[nH]4)cc32)cc1 (single isomer, unassigned) [84 (En. 2), N-(7-(2-(1H-tetrazol-5-yl)phenyl)-5-phenyl-2,3,4,5-tetrahydrobenzo[b]oxepin-9-yl) pyrazolo[1,5-a]pyrimidin-5-amine] as the compound, how does the IC50 read?
The IC50 was 25.8 nM.

With COCC(CC(=O)O)c1cc(Nc2ccc(C#N)cc2)c2c(c1)C(C1CC1)CCCO2 (single isomer, unassigned) [131 (dia. 1), 3-(9-(4-Cyanophenylamino)-5-cyclopropyl-2,3,4,5-tetrahydrobenzo[b]oxepin-7-yl)-4-methoxybutanoic acid] as the compound, how does the IC50 read?
Its IC50 is 25.6 nM.

For Cc1ccc(CC(=O)Nc2cc(-c3ccccc3-c3nnn[nH]3)cc3c2OCCCC3c2ccccc2)cc1 (single isomer, unassigned) [Example 2-2, N-(7-(2-(1H-tetrazol-5-yl)phenyl)-5-phenyl-2,3,4,5-tetrahydrobenzo[b]oxepin-9-yl)-2-(p-tolyl)acetamide], which IC50 is on record?
Its IC50 is 31.8 nM.

Which IC50 does the source give for Cc1ccc(CC(=O)Nc2cc(-c3ccccc3-c3nnn[nH]3)cc3c2OCCCC3c2ccccc2)cc1 (single isomer, unassigned) [Example 2-3, N-(7-(2-(1H-tetrazol-5-yl)phenyl)-5-phenyl-2,3,4,5-tetrahydrobenzo[b]oxepin-9-yl)-2-(p-tolyl)acetamide] here?
Its IC50 is 21.4 nM.

For Cc1ccc(NC(=O)Nc2cc(-c3ccccc3-c3nnn[nH]3)cc3c2OCCCC3c2ccccc2)nc1 (single isomer, unassigned) [Example 3, 1-(7-(2-(1H-tetrazol-5-yl)phenyl)-5-phenyl-2,3,4,5-tetrahydrobenzo[b]oxepin-9-yl)-3-(5-methylpyridin-2-yl)urea], which IC50 is on record?
The IC50 was 35.6 nM.

Which IC50 does the source give for Cc1ccc(NC(=O)Nc2cc(-c3ccccc3C(=O)O)cc3c2OCCCC3c2ccccc2)cc1 (single isomer, unassigned) [Example 8-2, 2-(5-phenyl-9-(3-(p-tolyl)ureido)-2,3,4,5-tetrahydrobenzo[b]oxepin-7-yl)benzoic acid] here?
Its IC50 is 970 nM.

With CCC(C)C1CCCOc2c(NC(=O)Nc3ccc(C)cc3)cc(-c3ccccc3-c3nnn[nH]3)cc21 (single isomer, unassigned) [Example 29, 1-(7-(2-(1H-tetrazol-5-yl)phenyl)-5-(sec-butyl)-2,3,4,5-tetrahydrobenzo[b]oxepin-9-yl)-3-(p-tolyl)urea] as the compound, how does the IC50 read?
Its IC50 is 18 nM.

Which IC50 does the source give for Cc1ccc(NC(=O)Nc2cc(-c3ccccc3-c3nc(=O)o[nH]3)cc3c2OCCCC3C2CC2)cc1 (single isomer, unassigned) [Example 33-1, 1-(5-cyclopropyl-7-(2-(5-oxo-2,5-dihydro-1,2,4-oxadiazol-3-yl)phenyl)-2,3,4,5-tetrahydrobenzo[b]oxepin-9-yl)-3-(p-tolyl)urea] here?
Its IC50 is 1.2 nM.

With Cc1ccc(NC(=O)Nc2cc(-c3ccccc3-c3nc(=O)o[nH]3)cc3c2OCCCC3C2CC2)cc1 (single isomer, unassigned) [Example 33-2, 1-(5-cyclopropyl-7-(2-(5-oxo-2,5-dihydro-1,2,4-oxadiazol-3-yl)phenyl)-2,3,4,5-tetrahydrobenzo[b]oxepin-9-yl)-3-(p-tolyl)urea] as the compound, how does the IC50 read?
Its IC50 is 8 nM.

Which IC50 does the source give for Cc1ccc(-c2nnn[nH]2)c(-c2cc(NC(=O)Nc3ccccc3F)c3c(c2)C(C2CC2)CCCO3)c1 (single isomer, unassigned) [Example 34-1] here?
Its IC50 is 66 nM.

Which IC50 does the source give for Cc1ccc(NC(=O)Nc2cc(-c3ccccc3-c3nnn[nH]3)cc3c2OCCC(C)C3c2ccccc2)cc1 (single isomer, unassigned) [Example 43, 1-(7-(2-(1H-tetrazol-5-yl)phenyl)-4-methyl-5-phenyl-2,3,4,5-tetrahydrobenzo[b]oxepin-9-yl)-3-(p-tolyl)urea] here?
The IC50 was 30.1 nM.

With Cc1ccc(NC(=O)Nc2cc(-c3ccccc3-c3nnn[nH]3)cc3c2OCCC(C)C3c2ccccc2)cc1 (single isomer, unassigned) [Example 44, 1-(7-(2-(1H-tetrazol-5-yl)phenyl)-4-methyl-5-phenyl-2,3,4,5-tetrahydrobenzo[b]oxepin-9-yl)-3-(p-tolyl)urea] as the compound, how does the IC50 read?
Its IC50 is 1.7 nM.

Cc1ccc(NC(=O)Nc2cc(-c3ccccc3-c3nnn[nH]3)cc3c2OCCC(C)C3c2ccccc2)cc1 (single isomer, unassigned) [Example 45, 1-(7-(2-(1H-tetrazol-5-yl)phenyl)-4-methyl-5-phenyl-2,3,4,5-tetrahydrobenzo[b]oxepin-9-yl)-3-(p-tolyl)urea] was tested. Which IC50 did it give?
The IC50 was 106 nM and 288 nM.

With Cc1ccc(NC(=O)Nc2cc(-c3ccccc3-c3nnn[nH]3)cc3c2OCCC(C)C3c2ccccc2)cc1 (single isomer, unassigned) [Example 46, 1-(7-(2-(1H-tetrazol-5-yl)phenyl)-4-methyl-5-phenyl-2,3,4,5-tetrahydrobenzo[b]oxepin-9-yl)-3-(p-tolyl)urea] as the compound, how does the IC50 read?
The IC50 was 0.78 nM.

Which IC50 does the source give for Cc1ccc(CC(=O)Nc2cc(-c3ccccc3-c3nnn[nH]3)cc3c2OCCC(C)C3c2ccccc2)cc1 (single isomer, unassigned) [Example 47, N-(7-(2-(1H-tetrazol-5-yl)phenyl)-4-methyl-5-phenyl-2,3,4,5-tetrahydrobenzo[b]oxepin-9-yl)-2-(p-tolyl)acetamide] here?
Its IC50 is 282 nM.

Cc1ccc(CC(=O)Nc2cc(-c3ccccc3-c3nnn[nH]3)cc3c2OCCC(C)C3c2ccccc2)cc1 (single isomer, unassigned) [Example 48, N-(7-(2-(1H-tetrazol-5-yl)phenyl)-4-methyl-5-phenyl-2,3,4,5-tetrahydrobenzo[b]oxepin-9-yl)-2-(p-tolyl)acetamide] was tested. Which IC50 did it give?
Its IC50 is 12.5 nM.

With CC1CCOc2c(Nc3nc4ccccc4o3)cc(-c3ccccc3-c3nnn[nH]3)cc2C1c1ccccc1 (single isomer, unassigned) [Example 51, N-(7-(2-(1H-tetrazol-5-yl)phenyl)-4-methyl-5-phenyl-2,3,4,5-tetrahydrobenzo[b]oxepin-9-yl)benzo[d]oxazol-2-amine] as the compound, how does the IC50 read?
Its IC50 is 3.8 nM.

How did the IC50 turn out when CC1CCOc2c(Nc3nc4ccccc4[nH]3)cc(-c3ccccc3-c3nnn[nH]3)cc2C1c1ccccc1 (single isomer, unassigned) [Example 52, N-(7-(2-(1H-tetrazol-5-yl)phenyl)-4-methyl-5-phenyl-2,3,4,5-tetrahydrobenzo[b]oxepin-9-yl)-1H-benzo[d]imidazol-2-amine] was run?
The IC50 was 499 nM.

Which IC50 does the source give for CC(=O)NS(=O)(=O)c1ccccc1-c1cc(NC(=O)Nc2ccc(C)cc2)c2c(c1)C(c1ccccc1)CCCO2 (single isomer, unassigned) [Example 58, N-((2-(5-phenyl-9-(3′-(p-tolyl)ureido)-2,3,4,5-tetrahydrobenzo[b]oxepin-7-yl)phenyl)sulfonyl)acetamide] here?
Its IC50 is 1360 nM.

Cc1ccc(NC(=O)Nc2cc(-c3ccccc3S(=O)(=O)NC(=O)c3ccccc3)cc3c2OCCCC3c2ccccc2)cc1 (single isomer, unassigned) [Example 61, N-((2-(5-phenyl-9-(3-(p-tolyl)ureido)-2,3,4,5-tetrahydrobenzo[b]oxepin-7-yl)phenyl)sulfonyl)benzamide] was tested. Which IC50 did it give?
Its IC50 is 2290 nM.

For Cc1ccc(NC(=O)Nc2cc(-c3cc(C)ccc3C(=O)O)cc3c2OCCCC3c2ccccc2)cc1 (single isomer, unassigned) [Example 68, 4-methyl-2-(5-phenyl-9-(3-(p-tolyl)ureido)-2,3,4,5-tetrahydrobenzo[b]oxepin-7-yl)benzoic acid], which IC50 is on record?
Its IC50 is 14.4 nM.

Which IC50 does the source give for Cc1nc2ccc(Nc3cc(-c4ccccc4-c4nnn[nH]4)cc4c3OCCCC4c3ccccc3)cc2s1 (single isomer, unassigned) [Example 71, N-(7-(2-(1H-tetrazol-5-yl)phenyl)-5-phenyl-2,3,4,5-tetrahydrobenzo[b]oxepin-9-yl)-2-methylbenzo[d]thiazol-6-amine] here?
Its IC50 is 3.1 nM.

Which IC50 does the source give for Cc1ccc(-c2nnn[nH]2)c(-c2cc(Nc3ccc(Cl)cc3F)c3c(c2)C(c2ccccc2)CCCO3)c1 (single isomer, unassigned) [Example 75, N-(4-chloro-2-fluorophenyl)-7-(5-methyl-2-(1H-tetrazol-5-yl)phenyl)-5-phenyl-2,3,4,5-tetrahydrobenzo[b]oxepin-9-amine] here?
Its IC50 is 18.5 nM.
